Patent publication US20140080885A1, “METHODS OF TREATING TRAUMATIC BRAIN INJURY” (University of South Florida (A Florida Non-Profit …, priority 2012, published 2014)

Test system: CA3 layer of the hippocampus in rats 24 hrs following TBI
Assay: Hippocampal damage after TBI (lateral fluid percussion injury), Fluoro-Jade staining of degenerating neurons
Assay type: in vivo, Male Sprague-Dawley rats
Settings: vs vehicle (2.5% DMSO in saline), p<0.0293 ANOVA with Dunnett's post-hoc test
Description: FIG. 1 illustrates that Carvedilol treatment reduces hippocampal damage following TBI. Representative images of the CA3 layer of the hippocampus in rats 24 hrs following TBI, vehicle treated (A) and carvedilol treated (B) at 1 and 12 hrs following the insult. […] Images were taken at 4× magnification. Dosing was subcutaneous and the vehicle is 2.5% DMSO in saline.
All animal procedures were conducted in accordance with the NIH Guide for the Care and Use of Laboratory Animals following a protocol approved by the Institutional Animal Care and Use Committee at the University of South Florida. Male Sprague-Dawley rats (Harlan, Indianapolis, Ind.) weighing 250 to 300 g were housed in a climate-controlled room with water and laboratory chow available ad libitum. A total of 33 animals were used in this study.
Induction of Lateral Fluid Percussion Injury (LFPI) Animals were anesthetized using a mixture of ketamine (90 mg/kg)/xylazine (10 mg/kg) (IP). […] Impact pressures were measured using a transducer attached to the point of impact on the fluid percussive device. […]
All quantitation was performed using the NIH Image J software. […] Photomicrographs captured at 200× magnification with an Olympus DP70 camera were used for quantification. […] The channels of the RGB images were split and the green channel was used for quantitation of the FJ staining images. […]

## COc1ccccc1OCCNCC(O)COc1cccc2[nH]c3ccccc3c12 (racemic) [Carvedilol, (±)-[3-(9H-carbazol-4-yloxy)-2-hydroxypropyl][2-(2-methoxyphenoxy)ethyl]amine]
Subcutaneous dosing at 1 and 12 hrs following the insult
  hippocampal damage following TBI: significantly reduces hippocampal damage
Subcutaneous dosing at 6 and 12 (hrs) following the insult
  hippocampal damage following TBI: significantly reduces hippocampal damage
